Test results as given in patent US9474788B2, “Methods for the reactivation of latent HIV using cytosine methylation inhibitors and NF-KB activators” (priority 2010, dated 2016).
Like-named read-outs stand apart in the source and are kept apart here.

Experiments:
Assay type in all cases: cell-based
[1] = tested on: latent HIV-1; experiment: Latent HIV-1 reactivation in a polyclonal population of latently infected Jurkat T cells, GFP by flow cytometry; settings: about two months after infection
Description: (§1) Jurkat and J-Lat cells were cultured in RPMI (Invitrogen) with 5% FBS (Gemini Bio-Products) and 5% Fetalplex (Gemini Bio-Products). For analysis of virus reactivation by flow cytometry, aza-CdR (Sigma) and TNF-α (Biosource) treatments were for 24 h, after which medium was replaced. Reactivation was assayed after an additional 48 h. For chromatin immunoprecipitation (ChIP) and bisulfite-mediated methylcytosine mapping, cells were treated for 30 h with aza-CdR. For cycloheximide experiments, cells were treated for 24 hours, either with or without 40 ng/ml cycloheximide.
J-Lat cells were transfected by electroporation using Kit R and program O-28 (Amaxa Biosystems). […] Three days post-infection, GFP-negative and -positive cell populations were isolated by fluorescence-activated cell sorting (FACS). […] Cells were cotransfected with a plasmid encoding the tomato fluorescent protein and either methylated or unmethylated pEGFP-N1, and the tomato-positive population was analyzed for GFP expression. For measurement of J-Lat activation, cells were infected with undiluted virus and analyzed by flow cytometry 2 days post-infection.
Cell fluorescence was measured with the fluorescence activated cell sorter FACSCalibur or LSRII (BD Biosciences). Cell sorting was performed with the fluorescence activated cell sorting (FACS) Vantage DiVa (BD Biosciences). […]

[2] = tested on: latent HIV-1
Description: as §1
J-Lat cells were transfected by electroporation using Kit R and program O-28 (Amaxa Biosystems). HIV-1 reactivation was assayed by flow cytometry four days post-transfection. […] Supernatant was harvested 48 h post-transfection and frozen at −80° C. in aliquots. Aliquots were thawed, diluted 1:160, and used to infect Jurkat T cells overnight at a multiplicity of 0.1 infectious units per cell with 2 ml supernatant per 1 million cells. Three days post-infection, GFP-negative and -positive cell populations were isolated by fluorescence-activated cell sorting (FACS). […] Cells were cotransfected with a plasmid encoding the tomato fluorescent protein and either methylated or unmethylated pEGFP-N1, and the tomato-positive population was analyzed for GFP expression. For measurement of J-Lat activation, cells were infected with undiluted virus and analyzed by flow cytometry 2 days post-infection.
Cell fluorescence was measured with the fluorescence activated cell sorter FACSCalibur or LSRII (BD Biosciences). Cell sorting was performed with the fluorescence activated cell sorting (FACS) Vantage DiVa (BD Biosciences). To phenotype CD4^+ T cells, the cells were stained with the following monoclonal antibodies (mAbs): phycoerythrin-conjugated (PE)—anti-CD4, TC—anti-CD45RA, or PE—anti-CXCR4 (Caltag). Flow cytometry and sorting data were analyzed with FlowJo software (Treestar) or Cellquest (BD Biosciences), in the case of primary cells. Analysis was restricted to the live population, as defined by the forward versus side scatter profile. Flowjo transforms fluorescence plots to a linear scale at the origin, permitting intelligible display of cells with low fluorescence.

[3] = tested on: HIV-1 CpG islands; experiment: Bisulfite-mediated methylcytosine mapping of HIV-1 in J-Lat 6.3; settings: depending on the CpG analyzed, 30 h treatment
Description: as §1
Sodium bisulfite treatment was performed according to the Pikaard protocol (on the internet at http://followed by www(dot)biology(dot)wustl(dot)edu/pikaard/PDFs and protocol files/bisulfite sequencing(dot)pdf) with minor modifications. Jurkat T cell DNA was digested overnight with Pst I and purified with the Qiaquick PCR Purification Kit (Qiagen). Bisulfite-treated DNA was amplified in nested PCR reactions with the following reaction conditions: denature (95° C., 5 minutes), cycle 35 times (95° C., 30 seconds then 60° C., 60 seconds), and extend (60° C., 7 minutes). […] Nucleotide sequence was determined of at least nine cloned inserts using the universal M13 reverse primer. The efficiency of sodium bisulfite conversion was calculated using the Quantification Tool for Methylation Analysis (QUMA) software.

[4] = tested on: HIV-1 transcription; experiment: Reverse transcription and quantitative PCR of HIV-1 mRNA in J-Lat cells; settings: 24 hours, 40 ng/ml cycloheximide
Description: as §1
J-Lat cells were transfected with short interfering RNAs (siRNAs) corresponding to the MBD2 mRNA or non-targeting control short interfering RNAs (siRNAs) (siGENOME SMARTpool or siCONTROL pool, Dharmacon) by electroporation using Kit R and program O-28 (Amaxa Biosystems). […] Quantitative PCR was performed with the 7900HT Sequence Detection System (Applied Biosystems) and the 2× Hot Sybr real time PCR kit (Molecular Cloning Laboratories), with each PCR reaction receiving 1/20 of the reverse transcription. […] SDS 2.3 software (Applied Biosystems) was used to quantify each cDNA relative to cyclophilin A and to confirm the specificity of each PCR reaction by melting curve analysis.

[5] = tested on: HIV-1 CpG island 2; experiment: Chromatin immunoprecipitation of factor recruitment to the HIV-1 provirus in J-Lat 6.3
Description: as §1
ChIP was performed as described previously with modifications. J-Lat 6.3 cells Cells were diluted to 5×10^5 per ml, lysed, and sonicated (Model 500 Ultrasonic Dismembranator, Fisher Scientific). Lysates were incubated overnight with 5 μg of antibody against MBD2 (Upstate Cell Signaling Solutions cat. 07-198), HDAC2 (Santa Cruz Biotechnology cat. sc-7899) or Sp1 (Santa Cruz Biotechnology cat. sc-59). Immune complexes were recovered by incubation for 1 h with protein A agarose beads (Invitrogen). Immunoprecipitated DNA was quantified by quantitative PCR using the 7900HT Sequence Detection System (Applied Biosystems) and 2× Hot Sybr real time PCR kit (Molecular Cloning Laboratories). Negative control DNA was assayed using 5USBACT and 3USBACT as primers, CpG island 1 was assayed using oSK92 (5′-[…]-3′) (SEQ ID NO:23) and oSK93 (5′-[…]-3′) (SEQ ID NO:24) as primers, and CpG island 2 was assayed using oSK89 (5′-[…]-3′) (SEQ ID NO:25) and oSK90 (5′-[…]-3′) (SEQ ID NO:26) as primers. SDS 2.3 software (Applied Biosystems) was used to analyze precipitated DNA relative to input and to confirm the specificity of each PCR reaction by melting curve analysis.

Compound	Proportion of cells with active virus, fold greater [1]	Reactivation of latent virus ([2]; J-Lat A2 (HIV-derived vector encoding only viral promoter and Tat))	Reactivation of latent HIV-1, MFI, fold greater than PBS control ([2]; J-Lat cell line 6.3) [fold]	Reactivation of latent HIV-1, MFI, fold greater than PBS control ([2]; J-Lat cell line 8.4) [fold]	Reactivation of latent HIV-1, MFI, fold greater than PBS control ([2]; J-Lat cell line 9.2) [fold]	Reactivation of latent HIV-1, MFI, fold greater than PBS control ([2]; J-Lat cell line 15.4) [fold]	Decrease in methylation [3] [%]	Effect on HIV-1 gene expression (mean fluorescence intensity or proportion of GFP-positive cells) ([2]; J-Lat lines 6.3, 8.4, 9.2 and 15.4)	HIV-1 transcription in the presence of cycloheximide [4]	HDAC2 recruitment to CpG island 2 [5]	MBD2 recruitment to CpG island 2 [5]	Sp1 recruitment to CpG island 2 [5]	GFP expression after treatment of J-Lat cells with TNF-α ([2]; 40 ng/ml cycloheximide)
TNF-a	1.5 fold	reactivated the majority of latent virus	7.1	2.5	2.3	1.7							
Nc1ncn([C@H]2C[C@H](O)[C@@H](CO)O2)c(=O)n1 [Aza-CdR, 5-aza-2′ deoxycytidine]	two-fold greater proportion of cells with active virus		1.8	1.6	1.1	1	≤ 50	little effect	still induced HIV-1 transcription	lost	eliminated	increased Sp1 recruitment	
C[C@@H]1C[C@@H]([C@H](O)CC2CC(=O)NC(=O)C2)C(=O)[C@@H](C)C1 [Cycloheximide, cycloheximide]													inhibition of GFP expression
